# Experiment: gradient 5% acetonitrile 3 min, to 50% in 2 min, to 85% in 15 min, held 3 min, 100 µL/min
# Details: column: Zorbax Extend-C18 2.1 x 50 mm; eluents: water / acetonitrile, 0.1% formic acid
# Method in brief: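 Standards, all pure, were combined into mixtures of ~100 molecules and run at 100 μL/min on a Zorbax Extend-C18 column (2.1 × 50 mm, 1.8 μm) with water and acetonitrile, each containing 0.1% formic acid. A coupled quadrupole time-of-flight mass spectrometer operated in positive and negative ionization mode. Retention time values come from computationally picked adduct peaks, each inspected manually.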
row,SMILES,RP-LC retention time
1,CCNc1cc(N2CCC(CCC(=O)NCc3ccccc3Cl)CC2)ncn1,585 s
2,CC(=O)Nc1c(C)nn(-c2ccccc2)c1N1CCC(C(=O)N2CCN(c3ccccn3)CC2)CC1,569 s
3,CCn1c(=O)sc2cc(S(=O)(=O)N3CCC(C(=O)NC4CCCc5ccccc54)CC3)ccc21 (stereo not drawn),957 s
4,Cc1cc(Nc2cc(CN3CCOCC3)c3nc(C)c(Cc4ccc(Cl)cc4F)n3n2)n[nH]1,712 s
5,Cn1cccc1C(=O)N1CCC2(CC1)NC(=O)N(Cc1ccccc1Cl)C2=O,790 s
6,COc1ccc2c(c1)C1(CCN(C(=O)NCCc3ccccc3)C1)C(=O)N2C (stereo not drawn),757 s
7,NC(=O)c1ccsc1NC(=O)c1ccc(S(=O)(=O)N2CCc3ccccc3C2)cc1,877 s
8,Cc1ccc(S(=O)(=O)N2CCc3nc[nH]c3C2)cc1C,611 s
9,CN(C)S(=O)(=O)c1ccc(C(=O)Nc2cccc([N+](=O)[O-])c2)cc1,858 s
10,O=C(NC1CCCCC1)c1csc(-c2ccc(N3CCCC3)nc2)n1,739 s
11,Cc1nc(-c2ccc(-c3noc(CNS(=O)(=O)c4ccccc4)n3)cc2)cs1,960 s
12,O=c1ccc(-c2ccncc2)nn1CCCNS(=O)(=O)c1cccs1,571 s
13,CCOc1ccc(-c2noc(Cc3nnc(-c4ccccc4)o3)n2)cc1,1040 s
14,CCC(C)NC(=O)C1CCN(S(=O)(=O)c2cn(CC)cn2)CC1 (stereo not drawn),639 s
15,Cc1ccc2c(Cl)c(C(=O)N3CCN(c4ccccn4)CC3)sc2c1,726 s
16,CC1(C)C(=O)N(c2ccc(C#N)c(C(F)(F)F)c2)C(=O)N1CCCCO,888 s
17,O=C(Cc1ccccc1Br)NC1CCN(c2cc(-c3cccs3)[nH]n2)C1 (stereo not drawn),689 s
18,CCOCC(=O)N1CCCCCNC(=O)[C@@H]2CCCC[C@@H]21,657 s
19,CCOc1ccc(-n2nc(CO)c(C(=O)NC3CC3)n2)cc1,814 s
20,CCC(=O)N(C1CCOCC1)C1CCN(Cc2cn(C)c3ccccc23)CC1,638 s
21,O=C(CCc1nc2ccccc2s1)NCC12CCCC=C1NC(=O)CC2 (stereo not drawn),695 s

row,SMILES,RP-LC retention time
1,Cn1nc(-c2nnc(-c3ccccc3F)o2)c2c1CCN(S(=O)(=O)c1ccc3c(c1)CCCC3)C2,1090 s
2,Cn1cc2c3c(cccc31)CN(C(=O)Nc1ccc(Br)cc1F)CC2,1000 s
3,CCCCS(=O)(=O)N1CCc2c(c(-c3nnc(-c4ccc(F)cc4)o3)nn2C)C1,893 s
4,CN(Cc1ccccc1)c1ccc(-c2noc(CN3CCC4(CC3)OCCO4)n2)cn1,745 s
5,O=C(c1cccc(Cl)c1)N1CCN(S(=O)(=O)c2cc3c4c(c2)CCC(=O)N4CCC3)CC1,843 s
6,CCNC(=O)C1CCN(S(=O)(=O)c2cc(C(=O)N(C)C)cs2)CC1,624 s
7,CN(C)c1ccc(-c2nc3ccccc3s2)cc1,1130 s
8,C/C(=C\c1csc(C)n1)C1C[C@@H]2O[C@@H]2CCC[C@H](C)[C@H](O)[C@@H](C)C(=O)C(C)(C)[C@@H](O)CC(=O)O1 (stereo partly drawn),874 s
9,Cc1ccccc1S(=O)(=O)N1CCC(Cc2nncn2-c2ccccc2)CC1,827 s
10,CCN1CCN(CCCNC(=O)CN2CCSc3ccccc32)CC1,580 s
11,Cc1ccc(-c2ncccc2CNS(=O)(=O)Cc2ccccc2F)cc1,693 s
12,CCN1CCCc2cc(C(=O)NC3CCCCC3)sc21,1010 s
13,CCn1cnc(S(=O)(=O)N2CCC(C(=O)N3CCc4ccccc4C3)CC2)c1,729 s
14,O=C(NCc1ccco1)C(=O)NCC1OCCN1C(=O)c1ccc2c(c1)OCO2 (stereo not drawn),653 s
15,CC1(C(=O)NCc2ccc(F)cc2)CCCN(C(=O)Nc2ccccc2Cl)C1 (stereo not drawn),941 s
16,O=C(Cn1cc(-c2ccccc2)c2ncnc(N3CCOCC3)c21)NCC1CCCO1 (stereo not drawn),644 s
17,O=C(CN1CCN(S(=O)(=O)c2ccccc2)CC1)Nc1ccc(Br)cc1,722 s
18,O=C(NCc1ccc2c(c1)N(C(=O)c1ccc(Cl)cc1)CC2)C1CC1,824 s
19,CCn1ccc2cc(S(=O)(=O)N3CCCN(C(=O)NC4CCCCC4)CC3)ccc21,936 s
20,O=C(Nc1cc(F)ccc1Cl)c1csc(-c2ccc(N3CCCC3)nc2)n1,994 s
21,O=C(Nc1cccc(Br)c1)N1CCc2nc[nH]c2C1,614 s

# Continued, values first:
row,RP-LC retention time,SMILES
1,1000 s,COc1ccc(Cn2c(=O)c3sccc3n(Cc3nc(-c4ccccc4)no3)c2=O)cc1
2,1120 s,Cc1ccc(-n2ccc(=O)c(-c3nc(-c4ccc(F)c(Br)c4)no3)n2)cc1C
3,927 s,O=C(Nc1cc(-c2ccsc2)no1)c1ccc(Br)o1
4,866 s,COc1cccc(NC(=O)Cn2nc3c(Oc4ccccc4C)nccn3c2=O)c1
5,734 s,COC(=O)c1c(NCc2ccc3c(c2)OCO3)c2ccc(F)cc2[nH]c1=O
6,730 s,Cc1oc(-c2[nH]ncc2C(=O)N2CCCCC2)cc1S(=O)(=O)Nc1ccccc1
7,1080 s,COc1ccccc1C(=O)NC1(C(F)(F)F)C(=O)N(C2CCCCC2)C(C)=C1C(C)=O (stereo not drawn)
8,1240 s,COC(=O)c1ccc2c(=O)n(-c3cccc(C)c3)c(N3CCCCC3)nc2c1
9,1130 s,C=CCN(Cc1nc(-c2ccc(C)cc2)no1)C(=O)Nc1ccccc1OC
10,663 s,Cc1ccc(N(C)S(=O)(=O)c2cc3n(c2)CCCNC3=O)cc1
11,616 s,CC(=O)c1ccc(Nc2c(C(=O)OC(C)C)cnc3nc(C)ccc23)cc1
12,832 s,CNC(=O)c1ccc(-c2nc3cc(NS(=O)(=O)c4cc(F)ccc4C)ccc3n2C)cc1
13,1010 s,O=C(NCc1cccs1)C(=O)c1cccn1Cc1ccc(F)cc1
14,601 s,COc1cccc(-c2noc(Cn3ccnc3C)n2)c1OC
15,830 s,CCc1nc(OCC(=O)Nc2ccccc2CC)c2ccccc2n1
16,785 s,CC(C)NC(=O)Cn1nc2c3cc(-c4ccc(F)cc4)nn3ccn2c1=O
17,836 s,CCCCn1cnc2c(-c3ccccc3)cn(CC(=O)N3CCCC3)c2c1=O
18,726 s,Cc1cccc(OCC(=O)Nc2nnc(C3CC(=O)N(c4ccccc4)C3)o2)c1C (stereo not drawn)
19,664 s,Cc1ccc(C2(O)C(=O)N(CC(=O)Nc3ccccc3F)c3ccccc32)cc1 (stereo not drawn)
20,1130 s,Cc1ccc(Nc2nc(-c3ccc(C(C)C)cc3)cs2)nc1
21,630 s,COc1cc(C(=O)N2CCN(c3cc(=O)n(C)c(=O)n3C)CC2)cc(OC)c1OC
22,769 s,COC(=O)c1cc2c(=O)n(CCc3ccc(OC)c(OC)c3)ccc2nc1C
23,744 s,COc1ccc(NC(=O)C2c3cc(OC)c(OC)cc3C(=O)N(C)C2c2cccs2)cc1OC (stereo not drawn)

row,RP-LC retention time,SMILES
1,864 s,COc1cccc(-c2cc(=O)n3c4ccccc4n(CC(=O)NCc4ccco4)c3n2)c1
2,1270 s,O=C(Nc1ccccc1-c1nc2ccccc2s1)c1c(F)cccc1F
3,1200 s,O=C(COc1cc(O)c2c(=O)cc(-c3ccccc3)oc2c1)OCc1ccccc1
4,771 s,Cn1ccc2c(cc(C(=O)NCc3cccc(C(F)(F)F)c3)n2C)c1=O
5,816 s,O=C(NCc1cccs1)C1CCCN(c2nc3ccsc3c(=O)n2-c2ccccc2)C1 (stereo not drawn)
6,954 s,C=CCNC(=O)c1nnn(Cc2ccc(Cl)cc2)c1-n1cccc1
7,612 s,Cc1ccc(NC(=O)CN2C(=O)COc3ccc(C(=O)N(C)C)cc32)nc1
8,940 s,CCN1C(=O)COc2ccc(-c3csc(NC(=O)c4cccs4)n3)cc21
9,988 s,CN(C)S(=O)(=O)c1ccc2c(c1)N(CC(=O)Nc1ccc(Cl)cc1)C(=O)C1CCCCN21 (stereo not drawn)
10,746 s,COc1cccc(CNC(=O)C2(C)CCCN(C(=O)Nc3ccc(OC)c(OC)c3)C2)c1 (stereo not drawn)
11,1040 s,CCc1ccc(NC(=O)N2CCCC(C)(C(=O)NCc3ccccc3C)C2)cc1 (stereo not drawn)
12,607 s,O=C(Cn1nc2c(cc1=O)CCCC2)Nc1nc(-c2cccnc2)cs1
13,950 s,CN1C(=O)c2cc(S(=O)(=O)Nc3ccc(Cl)cc3)ccc2Oc2cccnc21
14,773 s,COc1ccc(C(=O)N2CCc3ccc(C(=O)Nc4ccc5c(c4)OCO5)cc32)cc1
15,872 s,COc1ccc(CN2C(=O)[C@H](OC)[C@@H]2C2=CCN(S(=O)(=O)c3cccs3)CC2)cc1
16,1040 s,Cn1cccc1C(=O)C(=O)Nc1cccc(Br)c1
17,775 s,COc1ccc(C2CC(=O)c3cnc(Nc4nc(C)c5cc(C)c(C)cc5n4)nc3C2)cc1 (stereo not drawn)
18,698 s,COc1ccc(NC(=O)C2CCCN(c3cnc4nccnc4c3)C2)cc1 (stereo not drawn)
19,608 s,COc1ccc(NC(=O)NCCn2c(-c3ccncc3)nc3cccnc32)cc1
20,1090 s,COc1ccc(NC(=O)/C=C/c2ccc(Cl)cc2)cc1
21,555 s,COc1cccc(C(=O)N2CCc3nc(CNC(=O)C4CCC4)n(C)c3C2)c1
22,693 s,Cc1ccn2c(NC(=O)c3ccc(Cl)cc3)c(-c3ccc(F)cc3)nc2c1
23,792 s,COc1ccc(CNC(=O)C2CCCN(c3nccnc3Sc3ccc(C)cc3)C2)c(OC)c1 (stereo not drawn)
